What all share (assay type): cell-based
Data set [1] has as its target T1, Retinoic acid receptor alpha (Homo sapiens, UniProt P10276).
T1 sequence (P10276 whole entry): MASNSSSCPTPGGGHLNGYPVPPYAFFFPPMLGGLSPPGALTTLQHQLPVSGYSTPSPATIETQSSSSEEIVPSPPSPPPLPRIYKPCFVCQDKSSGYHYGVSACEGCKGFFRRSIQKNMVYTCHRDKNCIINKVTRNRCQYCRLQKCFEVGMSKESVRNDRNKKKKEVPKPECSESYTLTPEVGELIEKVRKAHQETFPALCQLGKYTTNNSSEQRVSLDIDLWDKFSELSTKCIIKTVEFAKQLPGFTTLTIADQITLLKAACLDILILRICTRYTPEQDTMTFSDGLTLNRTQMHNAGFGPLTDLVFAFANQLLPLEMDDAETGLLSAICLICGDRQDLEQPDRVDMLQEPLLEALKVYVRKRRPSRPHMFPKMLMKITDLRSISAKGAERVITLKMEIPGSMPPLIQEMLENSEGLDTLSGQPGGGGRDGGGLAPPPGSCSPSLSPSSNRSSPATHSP
Kind of data set: Agonist activity at RARalpha (unknown origin) expressed in HEK293 cells assessed as transcriptional activation after 48 hrs by luciferase reporter gene assay in presence of bexarotene. A general note: A reporter such as luciferase makes a cellular process visible.

Data set [2] has as its target T2, Retinoic acid receptor alpha (Homo sapiens) (UniProt P10276).
T2 sequence (whole entry): T1 sequence (P10276 whole entry)
As to the kind of experiment: Agonist activity at RARalpha (unknown origin) expressed in HEK293 cells assessed as transcriptional activation at 1 uM after 48 hrs by luciferase reporter gene assay.

For data set [3], the target named is T1, Retinoic acid receptor alpha. As to the kind of experiment: (§1) Agonist activity at RARalpha (unknown origin) expressed in HEK293 cells assessed as transcriptional activation after 48 hrs by luciferase reporter gene assay.
Data set [4] addresses T2, Retinoic acid receptor alpha (Homo sapiens). The description is as §1.
The subject of another data set is HEK293. As to the kind of experiment: Cytotoxicity against HEK293 cells at > 1 uM. As to conditions: human.

The source made the active and inactive calls. The rule behind the calls is not given here.

For `CC1(C)C=Cc2c(cc(O)c3c(=O)c4c5c(ccc4oc23)OC(C(C)(C)O)C5)O1` (stereo not drawn), the EC50 in data set [1] was 170 nM; in data set [3] it was 65 nM. Further, the result in data set [2] was Active. In data set [4], the Activity entry is “Dose-dependent effect”.
For `CC(C)=CCc1c(O)ccc2oc3c4c(cc(O)c3c(=O)c12)OC(C)(C)C=C4` the same measures were 200 nM, 110 nM, “Active” and “Dose-dependent effect”.
For `CC1Oc2cc3oc4c(O)c5c(cc4c(=O)c3c(O)c2C1(C)C)C=CC(C)(C)O5` (stereo not drawn) [GERONTOXANTHONE A] the same measures were 200 nM, 170 nM, “Active” and “Dose-dependent effect”.
For `C=CC(C)(C)c1c(O)cc2oc3c(O)c4c(cc3c(=O)c2c1O)C=CC(C)(C)O4` [GERONTOXANTHONE B] the same measures were 2000 nM, 1700 nM, “Active” and “Dose-dependent effect”.
Regarding `CC(C)=CCc1c(O)cc(O)c2c(=O)c3c(CC=C(C)C)c(O)ccc3oc12` [GERONTOXANTHONE H], the result in data set [2] was Active. In addition, the Activity result in the data set with HEK293 was “Toxic”.

As a reminder, the EC50 is the concentration needed to bring the measured effect to its halfway point.

(Values after ChEMBL document CHEMBL3400029, “Xanthones from the roots of Maclura cochinchinensis var. gerontogea and their retinoic acid receptor-α agonistic activity” (Bioorg Med Chem Lett, 2015).)
